Measurements published in article PMC4748415, “Impact of different cell penetrating peptides on the efficacy of antisense therapeutics for targeting intracellular pathogens” (Scientific Reports, 2016).
In brackets after ≈: the same amount, converted by molar mass. Read-outs that look alike come from different tables or passages of the source. Peptide text beside a SMILES is read from it.

How the values were obtained:
L. monocytogenes F4244 [1] = assay: Concentration-dependent bacterial log reduction in pure culture; format: cell-based, Listeria monocytogenes; details: for Log CFU/ml: pure culture F4244, 16 hour incubation; for Log CFU reduction: relative to control, pure culture F4244
Protocol: (§1) The MICs of conjugated PNAs, free PNA, CPPs and untreated control against L. monocytogenes were determined using the broth microdilution method according to the Clinical and Laboratory Standards Institute (CLSI) guidelines with the following modifications. Briefly, low binding clear microcentrifuge tubes (USA scientific, Inc. Ocala, FL) were used in triplicates for each reaction instead of traditional 96-well plates. […] After a 16 hour incubation period (of test agent with bacteria), the number of viable bacteria was enumerated by serial dilution and counting on TSA plates. The MICs were repeated at least twice.

[2] = tested on: L. monocytogenes J0161 in infected C. elegans; assay: C. elegans infection model; details: 18 hours treatment; for Log CFUs/worm: 10 worms in triplicates; for Log CFUs reduction: versus water
L. monocytogenes F4244 [3] = assay: Time kill assay; format: cell-based, Listeria monocytogenes; details: L. monocytogenes; time kill at 32 μM, 12 hours
Protocol: L. monocytogenes F4244 in logarithmic growth phase was diluted to ~10^5 CFU/ml and incubated with 32 μM of the five PNAs (in triplicates) at 37 °C for 12 hours. Samples were collected every two hours, serially diluted, and plated onto TSA plates. Plates were then incubated wat 37 °C for 24 hours before viable CFUs were determined.
Samples were collected every 20 minutes and processed as above.

[4] = tested on: L. monocytogenes F4244 inside infected J774A.1 cells; format: cell-based; details: 4 hours; for Log CFU/ml: intracellular F4244 in J774A.1; for Log CFU reduction: intracellular F4244 in J774A.1, versus control
[5] = tested on: clinical isolates of L. monocytogenes; format: cell-based, Listeria monocytogenes; details: for MIC: broth microdilution in low binding tubes, triplicates, 16 hour incubation
Protocol: as §1

[6] = tested on: mitochondrial biogenesis in J774A.1 cells; assay: Mitobiogenesis assay (In-Cell ELISA, COX-I/SDH-A); details: three days, tested at 0.1, 1, 10 and 20 μM, COX-I/SDH-A ratio
Protocol: To measure the effect of PNA on the mitochondrial biogenesis, In-Cell ELISA Kit (MitoSciences Inc., Eugene, OR, USA) was used as per the manufacturer’s instructions[54][55]. Briefly, J774A.1 cells were seeded (approximately 40,000 cells per well) in 96-well plates and allowed to adhere. […] Cells were allowed to grow for approximately 3 days. Media were removed and cells were washed with PBS, then fixed with 4% paraformaldehyde. After fixing, cells were washed with PBS and permeabilization and blocking processes were done according to the manufacturer’s instructions. Primary antibodies to detect the levels of two proteins (subunit I of Complex IV (COX-I), that is mitochondrial DNA (mtDNA)-encoded), and the 70 kDa subunit of Complex II (SDH-A), a nuclear DNA (nDNA)-encoded were added and incubated for overnight at 4 °C. After incubation, cells were washed with PBS and secondary antibodies were added and incubated at room temperature for one hour. After washing, the expression of SDH-A and COX-1 were measured at 405 nm and 600 nm wavelength, respectively. The ratio between COX-I and SDH-A was calculated and the percent of inhibition of mitochondrial biogenesis was determined.

[7] = concentration required to inhibit 50% of L. monocytogenes isolates (six isolates)

In the case of “KFFKFFKFFK-O-cgatcattcaaa-NH2 [PKFF, anti-rpoA PNA covalently conjugated to the (KFF)3K CPP]”, the “Log CFU/ml” value (L. monocytogenes F4244 [1]; 1 µM PNA) is reported as 9.40±0.08 Log CFU/ml, the “Log CFU reduction” value (L. monocytogenes F4244 [1]; 1 µM PNA) is reported as -0.009 Log CFU and the “Log CFU/ml” value (L. monocytogenes F4244 [1]; 2 µM PNA) is reported as 9.35±0.05 Log CFU/ml. The “Log CFU reduction” value (L. monocytogenes F4244 [1]; 2 µM PNA) was 0.041 Log CFU, the “Log CFU/ml” value (L. monocytogenes F4244 [1]; 4 µM PNA) was 9.26±0.07 Log CFU/ml and the “Log CFU reduction” value (L. monocytogenes F4244 [1]; 4 µM PNA) was 0.129 Log CFU. For the same compound, the “Log CFU/ml” value (L. monocytogenes F4244 [1]; 8 µM PNA) was 8.93±0.35 Log CFU/ml, the “Log CFU reduction” value (L. monocytogenes F4244 [1]; 8 µM PNA) was 0.46 Log CFU and the “Log CFU/ml” value (L. monocytogenes F4244 [1]; 16 µM PNA) was 8.40±0.16 Log CFU/ml. For the same compound, the “Log CFU reduction” value (L. monocytogenes F4244 [1]; 16 µM PNA) was 0.98 Log CFU, the “Log CFU/ml” value (L. monocytogenes F4244 [1]; 32 µM PNA) was 6.63±0.59 Log CFU/ml and the “Log CFU reduction” value (L. monocytogenes F4244 [1]; 32 µM PNA) was 2.78 Log CFU. For the same compound, the “Log CFUs/worm” value ([2]; 16 µM) was 3.43±0.2 Log CFUs/worm, the “Log CFUs reduction” value ([2]; 16 µM) was 0.71 Log CFUs and the “Log CFUs/worm” value ([2]; 32 µM) was 3.35±0.25 Log CFUs/worm. For the same compound, the “Log CFUs reduction” value ([2]; 32 µM) was 1.03 Log CFUs, the “bactericidal or bacteriostatic activity” value (L. monocytogenes F4244 [3]) was “bacteriostatic effect” and the “Log CFU/ml” value ([4]; 2 μM) was 6.77 ± 0.03 Log CFU/ml. For the same compound, the “Log CFU reduction” value ([4]; 2 μM) was −0.031 Log CFU, the “Log CFU/ml” value ([4]; 4 μM) was 6.76 ± 0.08 Log CFU/ml and the “Log CFU reduction” value ([4]; 4 μM) was −0.029 Log CFU. The “Log CFU/ml” value ([4]; 8 μM) was 6.12 ± 0.32 Log CFU/ml, the “Log CFU reduction” value ([4]; 8 μM) was 0.6 Log CFU and the MIC50 [5, 7] was 32 µM. It also gave an MIC ([5]; strain ATCC 13932) of 32 µM, an MIC ([5]; strain ATCC 19111) of 32 µM and an MIC ([5]; strain ATCC 19112) of 32 µM. For the same compound, the MIC ([5]; strain ATCC 19114) was 2 µM, the MIC ([5]; strain F4244, no turbidity) was 32 µM and the MIC ([5]; strain J0161) was 32 µM.

`CC(=O)NC[C@H]1CN(c2ccc(N3CCOCC3)c(F)c2)C(=O)O1` [Linezolid, linezolid] was tested, and the “inhibition of mitochondrial protein synthesis (mitobiogenesis)” value [6] was 65%.

`NCCCC[C@H](NC(=O)[C@H](Cc1ccccc1)NC(=O)[C@H](Cc1ccccc1)NC(=O)[C@H](CCCCN)NC(=O)[C@H](Cc1ccccc1)NC(=O)[C@H](Cc1ccccc1)NC(=O)[C@H](CCCCN)NC(=O)[C@H](Cc1ccccc1)NC(=O)[C@H](Cc1ccccc1)NC(=O)[C@@H](N)CCCCN)C(N)=O` [KFF, reference compound] (H-KFFKFFKFFK-NH2) was tested, and the MIC50 ([5]; clinical isolates of, 16 h) was 64 µM (≈ 90.4 µg/mL).

“RFRRFRRFRRFRXB [(RFR)4XB, cell penetrating peptide (RFR)4XB, reference compound]” gave an MIC50 [5, 7] of over 128 µM, an MIC ([5]; strain ATCC 13932) of over 128 µM and an MIC ([5]; strain ATCC 19111) of 32 µM. For the same compound, the MIC ([5]; strain ATCC 19112) was over 128 µM, the MIC ([5]; strain ATCC 19114) was 128 µM and the MIC ([5]; strain F4244, no turbidity) was over 128 µM. For the same compound, the MIC ([5]; strain F4244, no turbidity, listed as RFR) was “no growth inhibition” and the MIC ([5]; strain J0161) was over 128 µM.

For `CC1(C)S[C@@H]2[C@H](NC(=O)[C@H](N)c3ccccc3)C(=O)N2[C@H]1C(=O)O` [ampicillin], the “inhibition of mitochondrial protein synthesis (mitobiogenesis)” value [6] was “does not significantly inhibit mitobiogenesis”.
